By melting point is commonly meant the temperature, or range, at which the solid turns liquid. Compound `COc1cc2c(=O)[nH]c3c(c2cc1OC)c1ccccc1n3C` had a melting point of over 310 °C.

In turn, `c1ccc(C2Nc3ccccc3N3CCc4cccc2c43)cc1` (configuration not stated) registered a melting point of 161 to 164 °C.

Regarding `O=C1NC(=O)C(c2ccccc2)=C1Nc1cccc(Cl)c1`, the melting point came out at 188 °C.

In turn, `C=C(C)COc1cc(C(=O)OC)ccc1OC` registered a melting point of 62 to 63 °C.

Regarding `CCOC(=O)c1ccc(N=C(C)c2ccccc2)cc1`, the melting point came to 87 °C.

Take `COc1ccc(-c2ccnc3c(C(=O)c4cccs4)cnn23)cc1NC(=O)c1ccccc1`: the melting point fell in the range of 201 to 203 °C.

The compound `CC(=O)Nc1ccc2c(c1)cc(C(=O)c1ccc(C)cc1)n2C` returned a melting point of 211 to 213 °C.

Regarding `CCOCCOc1ccc(C(=O)Oc2ccc(C#N)c(F)c2)cc1`, the melting point is 62.4 to 63.2 °C.

As to `O=C(N[C@H](Cc1ccc(C(F)(F)F)cc1)[C@@H](O)c1ccc(F)cc1)c1c2ccccc2cc2ccccc12` (racemic), the melting point is 251 to 252 °C.

`Fc1ccc(Cn2c(NC3CCN(C4CCCN(Cc5ccccc5)C4)CC3)nc3ccccc32)cc1` (configuration not stated): the melting point was 175 °C.

As for `CN(C)CCCN(c1ccccc1)c1ncccc1NC(=O)c1ccccc1[N+](=O)[O-]`, the melting point fell in the range of 134 to 136 °C.

The compound `O=C1c2ccccc2N(N2CCCCCC2)C2=NCCN12` had a melting point of 206 to 208 °C.

Compound `O=C(O)C(=O)C12CC3CC(CC(O)(C3)C1)C2` displayed a melting point of 164 to 166 °C.

`O=C(O)c1nc2n(n1)-c1cc(Cl)ccc1N(c1ccc(Cl)cc1Cl)C2` displayed a melting point of 218 to 222 °C.

With `N#CC1(C#N)CCOCC1`, the melting point lay within 110 to 112 °C.

As for `O=C(NCCCCC1CCSS1)n1cc(F)c(=O)[nH]c1=O` (configuration not stated), the melting point was 126 °C.

`Cc1ccc(C(=O)NCCO)c(Nc2ccc3cn[nH]c3c2)n1` displayed a melting point of 217 to 220 °C.

The compound `Cc1ccc(S(=O)(=O)N2C[C@H]3C[C@@H]2CN3Cc2ccccc2)cc1` yielded a melting point of 124 °C.

Compound `Cc1ccc(NC(=O)c2ccccc2)c(C(=O)O)c1` gave a melting point of 205 to 208 °C.

In turn, `COC(=O)c1ccc2c(C(C(=O)NS(=O)(=O)c3ccc(C)cc3OC)c3ccc4c(c3)OCO4)cn(C)c2c1` (configuration not stated) had a melting point of 184 to 185 °C.

`COc1ccc(C(=O)Cc2ccccc2)cc1` came in with a melting point of 68 to 69 °C.

In turn, `CCOC(=O)C1=C(C)NC(C)=C(C(=O)OCC)C1c1ccccc1/C=C/C(=O)OC1CCCCC1C` (configuration not stated) displayed a melting point of 165 to 166 °C.

Take `Cn1c2ccccc2c(=O)c2ccc(Cl)n21`: the melting point was 88.5 to 90.5 °C.

Compound `COc1cc(Oc2cccc(C(F)(F)F)c2)nc(C(=O)NN=C2CCCC2)c1` gave a melting point of 146 to 148 °C.

As to `COc1ccc(-c2ccnnc2)cc1OC1CCCC1`, the melting point lay within 100 to 102 °C.

In the case of `Clc1ccc2c(NNc3ccccc3)c3c(nc2c1)CCSC3`, the melting point fell in the range of 201 to 202 °C.

Take `Cc1oc(-c2ccccc2)nc1COc1ccc(Cn2cc(CCC(=O)O)c(OCc3ccccc3)n2)cc1`: the melting point was in the range of 108 to 109 °C.

Regarding `CS(=O)c1ccc(COC(=O)N2CCN(CC3(C)Cn4cc([N+](=O)[O-])nc4O3)CC2)cc1` (configuration not stated), the melting point lay within 117 to 121 °C.

In turn, `C#CCSc1nn(C(=O)NS(=O)(=O)c2c(C)csc2C(=O)OCC)c(=O)n1C` displayed a melting point of 175 °C.

Compound `CCOC(=O)C1=C(CF)NC(CF)=C(C(=O)OCC)C1c1cccc([N+](=O)[O-])c1` registered a melting point of 113 to 114 °C.

In turn, `CC(=O)N(C)CCc1ccc(CCC(=O)O)cc1` registered a melting point of 133 to 134 °C.

Compound `COc1cc(C)c(C=CC(C)=CC=CC(C)=CC(=O)OC2C(OC)OC(CO)C(O)C2O)c(C)c1C` (configuration not stated) had a melting point of 197 °C.

As to `Brc1c[nH]c2ccc(OCc3ccccc3)cc12`, the melting point lay in the range of 89 to 92 °C.

Turning to `CC(=O)N[C@H]1CC[C@H](c2ccc([N+](=O)[O-])cc2)CC1`, the melting point lay in the range of 221 to 224 °C.

In turn, `CCCCN(CCO)c1cccc(O)c1` gave a melting point of 45 to 47 °C.

`Clc1ccc(Nc2nc3ccccc3c3c2ncn3-c2ccco2)cc1Cl` registered a melting point of 135 to 138 °C.

The compound `COc1cc(-c2ccnc(Nc3cccc(OC(F)(F)C(F)F)c3)n2)cc(OC)c1OC` had a melting point of 132 °C.

Turning to `CCCC(=O)c1ccc(OC)c(Cl)c1Cl`, the melting point lay within 42 to 44 °C.

Turning to `CN1CCc2c(c3cc(F)ccc3n2CCc2nc(-c3ccccc3)cs2)C1`, the melting point was in the range of 136 to 137 °C.

`Oc1ccc2cc(-c3csc(-c4ccccc4)n3)ccc2c1Br`: the melting point is 176 to 183 °C.

`CC1=Nc2ccccc2C1(C)CCCCCC(=O)O` (configuration not stated): the melting point was in the range of 115 to 118 °C.

Turning to `CCn1nc2c(N)nc(C)cc2c1CC(C)(C)O`, the melting point was 134 to 135 °C.

Turning to `CCOC(=O)CC[C@H](NC(=O)c1ccc(C=Cc2cnc3nc(NC(C)=O)nc(O)c3c2)cc1)C(=O)OCC`, the melting point is over 200 °C.

With `COc1ccc(C(=O)N(C(=O)c2ccc(OC)cc2)c2nc3ccc(N4CCN(Cc5ccccc5)CC4)cc3c(NCc3ccccc3)c2C#N)cc1`, the melting point was determined as 157 °C.

Consider `OCCSC/C=C/c1ccc(Cc2cccnc2)cc1`, for which the melting point lay in the range of 73 to 74 °C.

`CC(=O)NCS[C@@H]1CC(=O)N(Cc2ccc(Oc3ccc(F)cc3)nc2)C1` registered a melting point of 94 to 95 °C.

Consider `Clc1cccc(N2CCN(Cc3ccc(-c4ccccc4)s3)CC2)c1`, for which the melting point was found to be 115 °C.

In turn, `COc1ccccc1NC(=O)Nc1nc(Oc2ccc3ccccc3c2)nc(N(CCC(=O)O)Cc2ccccc2C(F)(F)F)n1` had a melting point of 232 to 233 °C.

Consider `CCC(CC)(CC(=O)Nc1cccc(OCc2ccc3ccc(C(C)=O)cc3n2)c1)C(=O)O`, for which the melting point worked out at 164 °C.

In turn, `CN(C)C=C(C#N)C(=O)Nc1cc(Cl)ccc1Cl` gave a melting point of 175 to 176 °C.

`Cc1noc(NS(=O)(=O)c2ccc(-c3ccccc3)cc2)c1C` returned a melting point of 154 to 155 °C.

The compound `CC(=O)c1csc2ccc(OS(=O)(=O)c3ccccc3)cc12` had a melting point of 129 to 130 °C.

As to `O=C(O)c1ccc2ccc(-c3ccccc3)cc2c1`, the melting point lay within 244 to 245 °C.

For the compound `C/C=C/CONC(=O)c1nc(-c2ccc(Cl)c(OC)c2F)cc(N)c1Cl`, the melting point lay within 154 to 156 °C.

In turn, `C=CCCc1cc(C2(c3ccc(OC(F)F)cc3)N=C(N)N(C)C2=O)ccc1F` (configuration not stated) returned a melting point of 55 to 58 °C.

Turning to `COc1nc2cc(SCCCc3cc4c(cc3O)CC(CCc3ccccc3)O4)ccc2cc1C(=O)O` (configuration not stated), the melting point was in the range of 157 to 161 °C.

In turn, `CCCCC(=O)c1c(C(C)(C)C)cc(C=[N+]([O-])C(C)(C)C)cc1C(C)(C)C` yielded a melting point of 196 to 205 °C.

`CN1C(=O)[C@H](NC(=O)CCc2ccc(C(F)(F)F)cc2)N=C(c2ccccc2)c2ccccc21` had a melting point of 175 to 176 °C.

In the case of `CC(C)Oc1ccc(-c2ccc3c(c2)C=C(C(=O)Nc2ccc(CN(C)C4CCOCC4)cc2)CCS3(=O)=O)cc1`, the melting point lay within 245 to 247 °C.

With `CC(C)c1cc(Cl)nc(-c2ccc(C#N)cc2)n1`, the melting point turned out to be 114 °C.

`O=C(/C=C/c1ccc(Br)cc1)c1c(F)cccc1F` gave a melting point of 71 °C.

The compound `CC(O)Cc1cc2c(cc1C(=NNc1ccc(Cl)nn1)c1ccc([N+](=O)[O-])cc1)OCO2` (configuration not stated) gave a melting point of 135 to 137 °C.

`c1ccc(C2NCCc3c2[nH]c2ccccc32)cc1` (configuration not stated) had a melting point of 175 to 177 °C.

For `N#CC(=Cc1cc(O)c(O)c(Br)c1)C(=O)Nc1cccc(Cl)c1`, the melting point was in the range of 266 to 270 °C.

`O=C(Cc1ccc2nc(CCCOc3cccc(CN4CCCC4)c3)[nH]c2c1)N1CCCC1` displayed a melting point of 68 °C.

The compound `CCn1cc(C(=O)O)c(=O)c2cc(F)c(N3CCN(c4ccccc4OC)CC3)c(OC(F)F)c21` yielded a melting point of 219 to 222 °C.

`C=C(CBr)S(=O)(=O)C(C)(C)C` had a melting point of 40.5 to 42 °C.

In turn, `COC1=CC(=O)N([C@@H]2c3cc(C#N)ccc3OC(C)(C)[C@H]2O)C1` (relative stereo) had a melting point of 225 °C.

The compound `COC(=O)C(Cc1ccc(OCCc2nc(-c3ccccc3)oc2C)cc1)C(N)=O` (configuration not stated) returned a melting point of 155 °C.

As to `O=C1N(CC2CCCO2)c2c(F)cccc2C12COc1cc3c(cc12)CCO3` (configuration not stated), the melting point lay in the range of 169 to 170 °C.

Compound `COC(=O)c1ccc(NC(C)=O)c(I)c1` displayed a melting point of 140 to 141 °C.

Consider `CCOc1cccc(CC(=O)O)c1OCCCc1cn(-c2ccc(Cl)cn2)nc1C(CC)CC`, for which the melting point fell in the range of 92 to 93 °C.

The compound `OC1CN2[C@H]3CC[C@@H]2[C@@H]1[C@@H](c1ccc(Cl)c(Cl)c1)C3` (some centres not stated) registered a melting point of 156 to 158 °C.

On to `COc1cc(N(Cc2cccnc2)c2ccc(C(=O)O)cc2)ccc1OC(F)F`, for which the melting point was in the range of 184 to 185 °C.

In turn, `OC1CCNC(Cc2ccccc2)C1` (configuration not stated) registered a melting point of 114 °C.

Turning to `CC(NC(=O)C(Cc1ccc(OCc2ccccc2)cc1)NC(=O)OC(C)(C)C)C(=O)O` (configuration not stated), the melting point is 160 to 162 °C.

In turn, `CCCCCCCNC(=O)Nc1ccccc1C(=O)NC1CCN(CCSc2nc(-c3ccccc3)c(-c3ccccc3)[nH]2)CC1` registered a melting point of 160 to 161 °C.

Regarding `COc1cc2c(=O)c(Cc3cccnc3)cn3c4cc(Br)ccc4c(c1)c23`, the melting point is 169 to 172 °C.

As to `COc1ccc(COc2c(O)cc3c(c2Cl)CCN(C(=O)OC(C)(C)C)CC3c2ccc(O)cc2)cc1` (configuration not stated), the melting point lay within 190 to 192 °C.

`O=C1NC(=O)C2(N1)C(=O)N(Cc1cc(Cl)c(Br)c(Cl)c1)c1ccccc12` (configuration not stated) showed a melting point of 290 to 292 °C.

Regarding `COc1n[nH]cc1-c1ccccc1`, the melting point was 150 °C.

`O=C1CN(c2ccccc2)C(=S)N1C1CCCCC1` yielded a melting point of 156 °C.

Take `COC(=O)c1cc(Cl)sc1NC(C)=O`: the melting point came to 110 °C.

The compound `OCc1cc2c3ccccc3n(Cc3ccccc3)c2s1` returned a melting point of 81 to 82 °C.

`Cc1cc([N+](=O)[O-])cc(C)c1Cl`: the melting point is 101 to 105 °C.

In the case of `CC1NCc2ccsc2C1c1ccccc1` (configuration not stated), the melting point stood at 78 °C.

In turn, `COc1ccc(S(=O)(=O)N2C(=O)C(N)(c3ccccc3Cl)c3cc(Cl)ccc32)c(N)c1` (configuration not stated) returned a melting point of 160 to 166 °C.
